Tests used:
[1] = system: normal NK cells expanded with K562-aAPC; assay: percent inhibition of viability; higher = more inhibition; conditions: 72 h, IL-2 2.5 ng/mL
Protocol: (§1)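 Drug sensitivity and resistance testing on K562-aAPC-expanded normal NK cells: 5 concentrations (10-fold steps over a 10,000-fold range), 72 h at 37 °C, viability by CellTiter-Glo normalised to DMSO and benzethonium chloride controls; DSS from the fitted curve.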

[2] = system: DERL-7 (IL-2 2.5 ng/mL); assay: as above; conditions: 72 h
[3] = system: IMC-1 (IL-2 20 ng/mL); assay: as above; conditions: 72 h
[4] = system: KAI3 (IL-2 2.5 ng/mL); assay: as above; conditions: 72 h
[5] = system: KHYG-1 (IL-2 2.5 ng/mL); assay: as above; conditions: 72 h
[6] = system: NK-92 (IL-2 2.5 ng/mL); assay: as above; conditions: 72 h
[7] = system: NK-YS (IL-2 2.5 ng/mL); assay: as above; conditions: 72 h
[8] = system: NKL (IL-2 2.5 ng/mL); assay: as above; conditions: 72 h
[9] = system: SNK-6 (IL-2 2.5 ng/mL); assay: as above; conditions: 72 h
[10] = system: YT (IL-2 2.5 ng/mL); assay: as above; conditions: 72 h
[11] = system: normal primary NK cells, pool 1 (3 donors) (IL-2 2.5 ng/mL); assay: as above; conditions: 72 h
[12] = system: normal primary NK cells, pool 1 (3 donors), resting (IL-2 0 ng/mL); assay: as above; conditions: 72 h
[13] = system: normal primary NK cells, pool 2 (3 donors) (IL-2 2.5 ng/mL); assay: as above; conditions: 72 h
[14] = system: normal primary NK cells, pool 3 (3 donors) (IL-2 2.5 ng/mL); assay: as above; conditions: 72 h
[15] = system: normal NK cells expanded with K562-aAPC; assay: drug sensitivity score (DSS) (DSS units); higher = more sensitive; extreme values may be limits of the assay; conditions: 72 h; IL-2 2.5 ng/mL
Protocol: as §1

[16] = system: DERL-7 (IL-2 2.5 ng/mL); assay: as above; conditions: 72 h
[17] = system: IMC-1 (IL-2 20 ng/mL); assay: as above; conditions: 72 h
[18] = system: KAI3 (IL-2 2.5 ng/mL); assay: as above; conditions: 72 h
[19] = system: KHYG-1 (IL-2 2.5 ng/mL); assay: as above; conditions: 72 h
[20] = system: NK-92 (IL-2 2.5 ng/mL); assay: as above; conditions: 72 h
[21] = system: NK-YS (IL-2 2.5 ng/mL); assay: as above; conditions: 72 h
[22] = system: NKL (IL-2 2.5 ng/mL); assay: as above; conditions: 72 h
[23] = system: SNK-6 (IL-2 2.5 ng/mL); assay: as above; conditions: 72 h
[24] = system: YT (IL-2 2.5 ng/mL); assay: as above; conditions: 72 h
[25] = system: normal primary NK cells, pool 1 (3 donors) (IL-2 2.5 ng/mL); assay: as above; conditions: 72 h
[26] = system: normal primary NK cells, pool 1 (3 donors), resting (IL-2 0 ng/mL); assay: as above; conditions: 72 h
[27] = system: normal primary NK cells, pool 2 (3 donors) (IL-2 2.5 ng/mL); assay: as above; conditions: 72 h
[28] = system: normal primary NK cells, pool 3 (3 donors) (IL-2 2.5 ng/mL); assay: as above; conditions: 72 h

O=C(O)CNC(=O)c1c(O)c2ccccc2n(Cc2ccccc2)c1=O [IOX-2] (max concentration tested 50000 nM)
percent inhibition of viability [%]
Conditions | 5 nM | 50 nM | 500 nM | 5000 nM | 50000 nM
[1] | -0.06 | 6.04 | 5.91 | 6.68 | 23.3
[2] | -0.5 | 5.58 | 5.28 | -4.63 | 25.8
[3] | 1.88 | 0.96 | 5.1 | 6.24 | 28.9
[4] | -3.52 | 1.05 | 2.47 | -3.92 | 11.8
[5] | 1.01 | 1.23 | 3.87 | 2.07 | 14.3
[6] | -8.34 | -11.4 | 3.46 | -6.86 | 24.2
[7] | 0.04 | -3.4 | 4.58 | -1.43 | 25.9
[8] | -6.3 | -1.48 | -3.38 | 1.11 | 28.3
[9] | 5.46 | -1.31 | -7.77 | 8.49 | 43.1
[10] | -1.09 | -0.73 | 1.54 | -7.45 | 15.8
[11] | 3.1 | -5.28 | -1.2 | -0.54 | 6.1
[12] | 1.89 | -6.6 | 3 | -20.1 | 3.21
[13] | -14.4 | 0.63 | -2.21 | -3.15 | 4.77
[14] | -6.36 | 0.19 | 2.86 | -4.87 | 13.1

Conditions | drug sensitivity score
[15] | 1.12
[16] | 0.77
[17] | 2.14
[18] | 0.01
[19] | 0.37
[20] | 0.62
[21] | 0.91
[22] | 1.32
[23] | 3.58
[24] | 0.14
[25] | 0
[26] | 0
[27] | 0
[28] | 0.04

CC(=O)[C@]1(O)Cc2c(O)c3c(c(O)c2[C@@H](O[C@H]2C[C@H](N)[C@H](O)[C@H](C)O2)C1)C(=O)c1ccccc1C3=O [Idarubicin] (max concentration tested 1000 nM)
percent inhibition of viability [%]
Conditions | 0.1 nM | 1 nM | 10 nM | 100 nM | 1000 nM
[1] | 1.32 | -3 | 56.3 | 97.4 | 101
[2] | 5.69 | 7.69 | 65.2 | 100 | 101
[3] | -7.47 | -4.02 | 65.8 | 101 | 101
[4] | 12.1 | 20.2 | 75.2 | 88.7 | 108
[5] | -9.43 | 1.7 | 74.3 | 108 | 110
[6] | 0.18 | 7.35 | 69.9 | 108 | 109
[7] | -9.65 | -1.39 | 71.5 | 80.4 | 107
[8] | 5.06 | 19.9 | 101 | 107 | 110
[9] | -5.01 | -15.7 | 84.5 | 96.8 | 94.4
[10] | -10.7 | -9.01 | -4.8 | 100 | 110
[11] | -4.61 | -3.53 | 21.8 | 96.4 | 98.4
[12] | 11 | 17.1 | 73.4 | 91.3 | 94
[13] | 6.51 | -1.19 | 51.6 | 94.8 | 97.9
[14] | 4.34 | 4.31 | 46.5 | 98 | 100

Conditions | drug sensitivity score
[15] | 24.8
[16] | 26.1
[17] | 25.6
[18] | 28.5
[19] | 26.5
[20] | 26.8
[21] | 26.4
[22] | 33.7
[23] | 27.1
[24] | 17.6
[25] | 20.9
[26] | 27.5
[27] | 23.9
[28] | 23.2

Cc1ccc(NC(=O)c2ccc(CN3CCN(C)CC3)cc2)cc1Nc1nccc(-c2cccnc2)n1 [Imatinib] (max concentration tested 10000 nM)
percent inhibition of viability [%]
Conditions | 1 nM | 10 nM | 100 nM | 1000 nM | 10000 nM
[1] | -6.85 | -3.28 | -7.18 | 1.24 | 91.6
[2] | 0.4 | -1.51 | 5.95 | 10.5 | 87.7
[3] | -6.61 | -9.38 | 0.61 | -5.6 | 101
[4] | -2.16 | -7.49 | -4.01 | -0.85 | 74.1
[5] | -2.34 | -9.57 | -7.02 | 0.18 | 101
[6] | -3.36 | 0.75 | -2.9 | 7.24 | 63.5
[7] | 0.66 | -5.53 | -1.76 | 2.33 | 70.3
[8] | -12.3 | -12.6 | -18.4 | -6.32 | 71.4
[9] | -9.34 | -11 | -25.2 | -21.8 | 56.1
[10] | -0.33 | -5.36 | 0.48 | 5.22 | 96.3
[11] | -6.14 | -4.91 | 10.5 | 15.8 | 64.8
[12] | -3.96 | -13.2 | 7.28 | 11.9 | 79
[13] | -11.8 | -13 | 3.62 | 7.57 | 37.4
[14] | -7.45 | -5.71 | -0.28 | 8.35 | 31.7

Conditions | drug sensitivity score
[15] | 5.26
[16] | 6.62
[17] | 5.24
[18] | 4.02
[19] | 5.74
[20] | 4.67
[21] | 4.18
[22] | 3.47
[23] | 2.14
[24] | 6.1
[25] | 5.78
[26] | 6.38
[27] | 3.04
[28] | 2.67

C/C(=C\c1csc(C)n1)[C@@H]1C[C@@H]2O[C@]2(C)CCC[C@H](C)[C@H](O)[C@@H](C)C(=O)C(C)(C)[C@@H](O)CC(=O)N1 [Ixabepilone] (max concentration tested 1000 nM)
percent inhibition of viability [%]
Conditions | 0.1 nM | 1 nM | 10 nM | 100 nM | 1000 nM
[1] | -1.18 | -8.46 | -3.17 | -2.89 | 56.2
[2] | -1.92 | -1.52 | 3.37 | -3.24 | 99.5
[3] | -7.65 | -4.14 | -5.18 | -8.88 | 99.5
[4] | -14.5 | -15 | -11.8 | -8.42 | 52.3
[5] | -4.44 | -6.03 | -7.83 | 2.2 | 99.9
[6] | -7.7 | -17.5 | -9.17 | -20.4 | 92
[7] | -10.3 | -9.56 | -5.83 | -4.02 | 68.7
[8] | 1.14 | -23.1 | -11 | -7.09 | 87.4
[9] | 6.18 | 12.8 | -13.9 | -4.41 | 75.4
[10] | -0.47 | -4.36 | -8.15 | 1.21 | 92.3
[11] | -13 | -15.1 | -13.4 | -8.88 | -3.61
[12] | -34.8 | -25.5 | -23.3 | -10.4 | -12
[13] | -8.83 | -5.74 | -1.71 | -8.89 | 4.45
[14] | -11.4 | -5.18 | -5.26 | -11.3 | 0.09

Conditions | drug sensitivity score
[15] | 2.77
[16] | 5.27
[17] | 4.92
[18] | 2.26
[19] | 5.84
[20] | 4.08
[21] | 3.45
[22] | 4.34
[23] | 3.82
[24] | 5.3
[25] | 0
[26] | 0
[27] | 0
[28] | 0

CCCNC(=O)Nc1ccc(Oc2ncnc3cc(OC)c(OC)cc23)cc1Cl [KRN-633] (max concentration tested 2500 nM)
percent inhibition of viability [%]
Conditions | 0.25 nM | 2.5 nM | 25 nM | 250 nM | 2500 nM
[1] | -6.27 | -2.98 | -3.15 | 2.74 | 8.42
[2] | -3.34 | 5.83 | -0.63 | -4.25 | 1.83
[3] | -4.82 | -0.52 | -0.33 | -1.22 | 4.98
[4] | 2.52 | -4.37 | -1.43 | 15 | 20.2
[5] | -7.51 | -5.95 | -2.77 | 2.64 | 8.1
[6] | -15.5 | -4.32 | 5.74 | 16.5 | 24.4
[7] | -5.16 | -9.39 | -4.94 | -0.21 | 16.8
[8] | -1.85 | 1.84 | 11.4 | 24.8 | 35.1
[9] | 0.67 | -10.6 | -7.54 | -16.4 | -0.64
[10] | -4.93 | -5.67 | -0.27 | 4.17 | 16.1
[11] | 0.25 | 12.5 | 7.25 | 8.57 | 1.55
[12] | -6.06 | 5.96 | 3.62 | 7.14 | -4.86
[13] | -10.4 | 4.55 | 1.17 | -2.44 | 3.9
[14] | -5.17 | 5.1 | -2.11 | -6.67 | -1.34

Conditions | drug sensitivity score
[15] | 0
[16] | 0
[17] | 0
[18] | 2.05
[19] | 0
[20] | 2.65
[21] | 0.34
[22] | 5.19
[23] | 0
[24] | 0.73
[25] | 0
[26] | 0
[27] | 0
[28] | 0

Reference: the supplement of paper PMC5908809
